From ChEMBL document CHEMBL5154776, “Discovery of Potent and Orally Bioavailable Platelet-Derived Growth Factor Receptor (PDGFR) Inhibitors for the Treatment of Osteosarcoma” (J Med Chem, 2022)
Active and inactive are the calls of the source.

Legend:
[1] = target: T1, Platelet-derived growth factor receptor beta (Homo sapiens, UniProt P09619); test: Inhibition of PDGFRbeta phosphorylation in human MNNG/HOS cells incubated for 48 hrs by Western blot analysis; assay type: cell-based
HOS-TE85 [2] = test: Inhibition of colony formation in human MNNG/HOS cells by crystal violet staining based analysis; assay type: functional, cell-based; conditions: dose 0.1-0.4 µM, DDE = dose-dependent effect
HOS-TE85 [3] = test: Induction of cell cycle arrest in human MNNG/HOS cells assessed as accumulation of cells at G2/M phase incubated for 48 hrs by propidium iodide staining based flow cytometry analysis; assay type: functional; conditions: dose 0.1-0.4 µM, DDE = dose-dependent effect
MG-63 [4] = test: Induction of cell cycle arrest in human MG-63 cells assessed as accumulation of cells at G0/G1 phase incubated for 48 hrs by propidium iodide staining based flow cytometry analysis; assay type: functional; conditions: dose 0.1-0.4 µM, DDE = dose-dependent effect
MG-63 [5] = test: Inhibition of alpha tubulin expression in human MG-63 cells assessed as effect on microtubule network at 0.1 to 0.4 uM by DAPI staining based immunofluorescence microscopic analysis; assay type: functional, cell-based; conditions: dose 0.1-0.4 µM
MG-63 [6] = test: Induction of apoptosis in human MG-63 cells at 0.4 uM after 48 hrs by Annexin V/PI staining based flow cytometric analysis; assay type: functional, cell-based
HOS-TE85 [7] = test: Inhibition of PDGF AA/BB-stimulated human MNNG/HOS cell proliferation measured after 48 hrs by MTT assay; assay type: functional, cell-based; conditions: dose 0.1-1.6 µM, DDE = dose-dependent effect
MG-63 [8] = test: Inhibition of PDGF AA/BB-stimulated human MG-63 cell proliferation measured after 48 hrs by MTT assay; assay type: functional, cell-based; conditions: dose 0.1-1.6 µM, DDE = dose-dependent effect
HOS-TE85 [9] = test: Induction of DNA damage in human MNNG/HOS cells assessed as tail DNA at 0.1 to 0.4 uM measured after 48 hrs by comet assay; assay type: functional, cell-based; conditions: dose 0.1-0.4 µM
MG-63 [10] = test: Induction of DNA damage in human MG-63 cells assessed as tail DNA at 0.1 to 0.4 uM measured after 48 hrs by comet assay; assay type: functional, cell-based; conditions: dose 0.1-0.4 µM
[11] = target: T1, Platelet-derived growth factor receptor beta; test: Inhibition of PDGFRbeta-mediated downstream signalling in human MG-63 cells assessed as suppression of ERK phosphorylation at 0.1 uM measured after 48 hrs by western blot analysis; assay type: cell-based
[12] = target: T1, Platelet-derived growth factor receptor beta; test: Inhibition of PDGFRbeta-mediated downstream signalling in human MG-63 cells assessed as suppression of AKT phosphorylation at 0.1 uM measured after 48 hrs by western blot analysis; assay type: cell-based
[13] = target: T1, Platelet-derived growth factor receptor beta; test: Inhibition of PDGFRbeta-mediated downstream signalling in human MNNG/HOS cells assessed as suppression of STAT3 phosphorylation at 0.1 to 0.4 uM measured after 48 hrs by western blot analysis; assay type: cell-based; conditions: dose 0.1-0.4 µM
HOS-TE85 [14] = test: Inhibition of cell migration in human MNNG/HOS cells assessed as reduction of cell mobility after 48 hrs by scratch-wound healing assay; assay type: functional, cell-based; conditions: dose 0.1-0.4 µM, DDE = dose-dependent effect
HOS-TE85 [15] = test: Inhibition of cell adhesion in human MNNG/HOS cells at 0.1 to 0.4 uM measured after 48 hrs by crystal violet staining based analysis; assay type: functional; conditions: dose 0.1-0.4 µM
MG-63 [16] = test: Inhibition of cell adhesion in human MG-63 cells at 0.1 to 0.4 uM measured after 48 hrs by crystal violet staining based analysis; assay type: functional; conditions: dose 0.1-0.4 µM
HOS-TE85 [17] = test: Inhibition of cell invasion in human MNNG/HOS cells at 0.1 to 0.4 uM measured after 48 hrs by crystal violet staining based transwell assay; assay type: functional; conditions: dose 0.1-0.4 µM
MG-63 [18] = test: Inhibition of cell migration in human MG-63 cells at 0.1 to 0.4 uM measured for 48 hrs scratch wound healing migration assay; assay type: functional, cell-based; conditions: dose 0.1-0.4 µM
HOS-TE85 [19] = test: Antimigratory activity against human MNNG/HOS cells assessed as expression of FAK by measuring fluorescence at 0.1 to 0.4 uM upto 48 hrs by DAPI staining based immunofluorescence microscopic analysis; assay type: functional, cell-based; conditions: dose 0.1-0.4 µM
MG-63 [20] = test: Antimigratory activity against human MG-63 cells assessed as expression of FAK by measuring fluorescence at 0.1 to 0.4 uM upto 48 hrs by DAPI staining based immunofluorescence microscopic analysis; assay type: functional, cell-based; conditions: dose 0.1-0.4 µM
MG-63 [21] = test: Antiinvasive activity against human MG-63 cells assessed as expression of FAK by measuring fluorescence at 0.1 to 0.4 uM upto 48 hrs by DAPI staining based immunofluorescence microscopic analysis; assay type: functional, cell-based; conditions: dose 0.1-0.4 µM
MG-63 [22] = test: Inhibition of alpha tubulin expression in human MG-63 cells at 0.1 to 0.4 uM measured after 48 hrs by western blot analysis; assay type: functional, cell-based; conditions: dose 0.1-0.4 µM
HOS-TE85 [23] = test: Antiinvasive activity against human MNNG/HOS cells assessed as reduction in cell spreading area upto 48 hrs by DAPI staining based immunofluorescence microscopic analysis; assay type: functional; conditions: dose 0.1-0.4 µM, DDE = dose-dependent effect
HOS-TE85 [24] = test: Antimigratory activity against human MNNG/HOS cells assessed as reduction in cell spreading area upto 48 hrs by DAPI staining based immunofluorescence microscopic analysis; assay type: functional; conditions: dose 0.1-0.4 µM, DDE = dose-dependent effect
MG-63 [25] = test: Antimigratory activity against human MG-63 cells assessed as reduction in cell spreading area upto 48 hrs by DAPI staining based immunofluorescence microscopic analysis; assay type: functional; conditions: dose 0.1-0.4 µM, DDE = dose-dependent effect
MG-63 [26] = test: Antiinvasive activity against human MG-63 cells assessed as reduction in cell spreading area upto 48 hrs by DAPI staining based immunofluorescence microscopic analysis; assay type: functional; conditions: dose 0.1-0.4 µM, DDE = dose-dependent effect
HOS-TE85 [27] = test: Inhibition of FAK expression in human MNNG/HOS cells incubated for 48 hrs by Western blot analysis; assay type: functional, cell-based; conditions: dose 0.1-0.4 µM, DDE = dose-dependent effect
[28] = target: Focal adhesion kinase 1 (Homo sapiens) (UniProt Q05397); test: Inhibition of FAK phosphorylation in human MNNG/HOS cells incubated for 48 hrs by Western blot analysis; assay type: cell-based; conditions: dose 0.1-0.4 µM, DDE = dose-dependent effect
Chain of Focal adhesion kinase 1 (Homo sapiens) (Q05397 2-1052 limits assumed): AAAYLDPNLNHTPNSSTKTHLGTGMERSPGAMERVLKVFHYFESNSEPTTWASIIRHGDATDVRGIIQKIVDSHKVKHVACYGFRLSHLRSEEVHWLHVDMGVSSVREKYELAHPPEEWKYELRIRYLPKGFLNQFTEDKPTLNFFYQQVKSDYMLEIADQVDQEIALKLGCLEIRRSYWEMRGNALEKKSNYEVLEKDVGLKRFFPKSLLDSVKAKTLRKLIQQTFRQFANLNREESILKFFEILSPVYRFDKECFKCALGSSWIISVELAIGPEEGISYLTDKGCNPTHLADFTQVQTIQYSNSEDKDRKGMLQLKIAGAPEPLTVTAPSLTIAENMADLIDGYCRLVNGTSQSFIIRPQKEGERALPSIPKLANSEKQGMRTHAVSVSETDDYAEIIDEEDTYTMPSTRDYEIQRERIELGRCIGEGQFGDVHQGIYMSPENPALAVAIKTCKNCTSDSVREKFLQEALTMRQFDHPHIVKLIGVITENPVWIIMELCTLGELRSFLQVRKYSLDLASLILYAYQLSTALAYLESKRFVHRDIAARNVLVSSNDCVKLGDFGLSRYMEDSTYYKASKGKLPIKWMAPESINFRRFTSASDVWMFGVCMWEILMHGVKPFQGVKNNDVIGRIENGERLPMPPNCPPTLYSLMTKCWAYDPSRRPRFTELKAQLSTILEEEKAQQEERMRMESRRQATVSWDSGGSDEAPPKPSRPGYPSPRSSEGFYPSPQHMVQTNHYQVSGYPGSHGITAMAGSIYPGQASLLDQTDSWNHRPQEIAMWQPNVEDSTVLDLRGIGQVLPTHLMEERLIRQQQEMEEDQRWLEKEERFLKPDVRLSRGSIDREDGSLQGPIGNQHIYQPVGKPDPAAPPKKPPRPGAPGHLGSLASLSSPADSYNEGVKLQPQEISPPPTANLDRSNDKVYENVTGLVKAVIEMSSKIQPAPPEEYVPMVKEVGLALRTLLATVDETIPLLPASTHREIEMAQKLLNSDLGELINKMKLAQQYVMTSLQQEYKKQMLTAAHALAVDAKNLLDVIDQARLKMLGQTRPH

[29] = target: Platelet-derived growth factor receptor alpha (Homo sapiens, UniProt P16234); test: Binding affinity to PDGFRalpha (unknown origin)
Chain of Platelet-derived growth factor receptor alpha (P16234 whole entry): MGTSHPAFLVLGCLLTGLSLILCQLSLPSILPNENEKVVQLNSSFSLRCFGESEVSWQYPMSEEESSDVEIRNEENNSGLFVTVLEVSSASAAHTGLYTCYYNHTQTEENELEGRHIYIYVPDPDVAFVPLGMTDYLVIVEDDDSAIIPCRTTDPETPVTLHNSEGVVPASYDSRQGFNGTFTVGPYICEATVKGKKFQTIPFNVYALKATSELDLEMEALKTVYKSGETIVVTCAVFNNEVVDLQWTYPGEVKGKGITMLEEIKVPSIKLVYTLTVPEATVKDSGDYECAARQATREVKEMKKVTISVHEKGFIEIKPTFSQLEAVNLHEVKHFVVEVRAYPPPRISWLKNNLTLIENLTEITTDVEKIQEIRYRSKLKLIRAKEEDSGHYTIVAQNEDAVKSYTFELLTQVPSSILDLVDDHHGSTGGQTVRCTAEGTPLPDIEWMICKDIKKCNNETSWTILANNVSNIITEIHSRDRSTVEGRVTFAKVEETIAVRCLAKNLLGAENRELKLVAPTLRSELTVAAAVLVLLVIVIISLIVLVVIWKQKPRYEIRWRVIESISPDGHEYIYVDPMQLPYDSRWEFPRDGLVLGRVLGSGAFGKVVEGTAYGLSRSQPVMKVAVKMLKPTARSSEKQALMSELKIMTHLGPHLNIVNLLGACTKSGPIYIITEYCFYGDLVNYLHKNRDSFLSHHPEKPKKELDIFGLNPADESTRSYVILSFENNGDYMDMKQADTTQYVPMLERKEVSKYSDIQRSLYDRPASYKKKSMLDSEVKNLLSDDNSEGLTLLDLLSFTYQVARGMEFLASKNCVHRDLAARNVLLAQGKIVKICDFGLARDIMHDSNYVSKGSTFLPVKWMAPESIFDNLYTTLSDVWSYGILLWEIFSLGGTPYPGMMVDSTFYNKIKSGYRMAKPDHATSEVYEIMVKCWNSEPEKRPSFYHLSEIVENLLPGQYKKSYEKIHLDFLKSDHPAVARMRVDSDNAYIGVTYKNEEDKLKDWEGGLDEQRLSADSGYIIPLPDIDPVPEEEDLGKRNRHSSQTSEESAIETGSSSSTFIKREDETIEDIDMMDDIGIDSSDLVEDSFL

HOS-TE85 [30] = test: Inhibition of PDGFRbeta expression in human MNNG/HOS cells incubated for 48 hrs by Western blot analysis; assay type: functional, cell-based
MG-63 [31] = test: Inhibition of PDGFRbeta expression in human MG-63 cells incubated for 48 hrs by Western blot analysis; assay type: functional, cell-based
[32] = target: T1, Platelet-derived growth factor receptor beta; test: Inhibition of PDGFRbeta phosphorylation in human MG-63 cells incubated for 48 hrs by Western blot analysis; assay type: cell-based
HOS-TE85 [33] = test: Induction of apoptosis in human MNNG/HOS cells xenografted in BALB/c nude mouse at 15 to 30 mg/kg/day, po dosed for 14 days by immunohistochemistry analysis; assay type: functional, organism-based; conditions: dose lower […], dose upper 30.0 mg/kg/day, time 14.0 day
HOS-TE85 [34] = test: In vivo inhibition of PDGFRbeta-mediated downstream signalling in human MNNG/HOS cells xenografted in BALB/c nude mouse assessed as phosphorylation of ERK in tumor tissue at 15 to 30 mg/kg/day, po for 14 days; assay type: functional, organism-based; conditions: dose lower […], dose upper 30.0 mg/kg/day, time 14.0 day
HOS-TE85 [35] = test: In vivo inhibition of PDGFRbeta-mediated downstream signalling in human MNNG/HOS cells xenografted in BALB/c nude mouse assessed as phosphorylation of AKT in tumor tissue at 15 to 30 mg/kg/day, po for 14 days; assay type: functional, organism-based; conditions: dose lower […], dose upper 30.0 mg/kg/day, time 14.0 day
HOS-TE85 [36] = test: Inhibition of colony formation in human MNNG/HOS cells at 0.2 uM by crystal violet staining based analysis; assay type: functional, cell-based
HOS-TE85 [37] = test: In vivo inhibition of PDGFRbeta-mediated downstream signalling in human MNNG/HOS cells xenografted in BALB/c nude mouse assessed as phosphorylation of PDGFR in tumor tissue at 15 to 30 mg/kg/day, po for 14 days; assay type: functional, organism-based; conditions: dose lower […], dose upper 30.0 mg/kg/day, time 14.0 day
[38] = target: T1, Platelet-derived growth factor receptor beta; test: Inhibition of PDGFRbeta in PDGF AA/BB stimulated human MNNG/HOS cells assessed as reduction in fluorescence intensity measured after 48 hrs by DAPI staining based immunofluorescence analysis; assay type: cell-based; conditions: dose 0.1-0.4 µM, DDE = dose-dependent effect

T1 sequence (P09619 whole entry): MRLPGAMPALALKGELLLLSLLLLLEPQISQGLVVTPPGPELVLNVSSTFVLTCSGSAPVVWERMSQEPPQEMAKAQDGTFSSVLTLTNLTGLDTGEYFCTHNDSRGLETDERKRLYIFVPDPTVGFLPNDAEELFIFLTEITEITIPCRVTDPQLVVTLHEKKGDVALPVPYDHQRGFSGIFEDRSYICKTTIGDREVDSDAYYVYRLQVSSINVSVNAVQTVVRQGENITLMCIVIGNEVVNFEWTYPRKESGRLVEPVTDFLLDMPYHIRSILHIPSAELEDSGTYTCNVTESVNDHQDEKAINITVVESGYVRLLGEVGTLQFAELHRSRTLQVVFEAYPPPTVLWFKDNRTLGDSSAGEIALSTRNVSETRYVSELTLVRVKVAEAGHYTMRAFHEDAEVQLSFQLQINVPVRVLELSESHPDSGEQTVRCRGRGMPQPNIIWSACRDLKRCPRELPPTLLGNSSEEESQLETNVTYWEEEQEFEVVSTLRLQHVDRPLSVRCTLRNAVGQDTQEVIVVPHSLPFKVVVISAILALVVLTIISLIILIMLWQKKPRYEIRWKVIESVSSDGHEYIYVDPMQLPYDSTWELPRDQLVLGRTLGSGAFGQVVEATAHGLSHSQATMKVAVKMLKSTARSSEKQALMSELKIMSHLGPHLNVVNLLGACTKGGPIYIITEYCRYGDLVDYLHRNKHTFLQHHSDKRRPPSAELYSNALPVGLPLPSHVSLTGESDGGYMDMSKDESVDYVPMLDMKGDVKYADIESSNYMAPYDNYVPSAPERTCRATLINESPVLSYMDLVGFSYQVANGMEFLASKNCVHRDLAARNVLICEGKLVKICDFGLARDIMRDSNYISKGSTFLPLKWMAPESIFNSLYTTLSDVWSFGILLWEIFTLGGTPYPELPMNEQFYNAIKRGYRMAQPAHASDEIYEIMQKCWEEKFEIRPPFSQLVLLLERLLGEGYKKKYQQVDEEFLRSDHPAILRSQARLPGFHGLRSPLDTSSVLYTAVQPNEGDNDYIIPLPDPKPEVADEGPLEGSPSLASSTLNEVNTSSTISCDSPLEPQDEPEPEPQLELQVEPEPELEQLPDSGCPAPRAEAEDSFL

CCN1CCN(c2ccc(Nc3ncc(C)c(Nc4ccc5cn[nH]c5c4)n3)cc2OC)CC1
active: inhibition [1] | inhibition (HOS-TE85 [2]) Dde | Activity (HOS-TE85 [3]) Dde | Activity (MG-63 [4]) Dde | inhibition (MG-63 [5]) | Activity (MG-63 [6]) | inhibition (HOS-TE85 [7]) Dde | inhibition (MG-63 [8]) Dde | Activity (HOS-TE85 [9]) | Activity (MG-63 [10]) | inhibition [11] | inhibition [12] | inhibition [13] | inhibition (HOS-TE85 [14]) Dde | inhibition (HOS-TE85 [15]) | inhibition (MG-63 [16]) | inhibition (HOS-TE85 [17]) | inhibition (MG-63 [18]) | Activity (HOS-TE85 [19]) | Activity (MG-63 [20]) | Activity (MG-63 [21]) | inhibition (MG-63 [22]) | Activity (HOS-TE85 [23]) Dde | Activity (HOS-TE85 [24]) Dde | Activity (MG-63 [25]) Dde | Activity (MG-63 [26]) Dde | inhibition (HOS-TE85 [27]) Dde | inhibition [28] Dde | Activity [29] | inhibition (HOS-TE85 [30]) | inhibition (MG-63 [31]) | inhibition [32] | Activity (HOS-TE85 [33]) | inhibition (HOS-TE85 [34]) | inhibition (HOS-TE85 [35]) | inhibition (HOS-TE85 [36]) | inhibition (HOS-TE85 [37]) | inhibition [38] Dde
